The record followed here is patent publication US7612113B2, “Hydroxy tetrahydro-naphthalenylurea derivatives” (Xention Limited, priority 2002, dated 2009).

Structures are written as SMILES.

T1 sequence (Q8NER1 whole entry): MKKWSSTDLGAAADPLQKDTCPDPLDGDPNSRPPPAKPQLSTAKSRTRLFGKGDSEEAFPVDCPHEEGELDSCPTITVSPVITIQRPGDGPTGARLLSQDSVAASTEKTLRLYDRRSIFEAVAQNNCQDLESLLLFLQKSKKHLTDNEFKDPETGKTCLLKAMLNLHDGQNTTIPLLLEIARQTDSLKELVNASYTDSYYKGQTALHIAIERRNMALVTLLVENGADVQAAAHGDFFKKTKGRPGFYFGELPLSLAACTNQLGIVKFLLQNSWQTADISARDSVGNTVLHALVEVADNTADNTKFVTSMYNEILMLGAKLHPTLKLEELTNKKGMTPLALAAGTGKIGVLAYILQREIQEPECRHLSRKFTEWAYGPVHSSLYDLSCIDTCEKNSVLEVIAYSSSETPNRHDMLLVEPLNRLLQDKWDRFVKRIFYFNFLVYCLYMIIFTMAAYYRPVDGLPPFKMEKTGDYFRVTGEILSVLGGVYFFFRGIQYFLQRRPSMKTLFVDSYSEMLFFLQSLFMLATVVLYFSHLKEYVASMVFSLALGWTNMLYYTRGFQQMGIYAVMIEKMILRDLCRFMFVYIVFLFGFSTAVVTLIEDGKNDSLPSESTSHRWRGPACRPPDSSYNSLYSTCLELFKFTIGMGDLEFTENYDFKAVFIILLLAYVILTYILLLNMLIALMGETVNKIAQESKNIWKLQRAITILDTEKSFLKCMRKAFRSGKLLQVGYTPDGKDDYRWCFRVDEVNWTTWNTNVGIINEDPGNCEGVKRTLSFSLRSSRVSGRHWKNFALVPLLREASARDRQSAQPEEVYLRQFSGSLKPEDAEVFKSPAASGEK

One data set has as its target T1, human VR1 (Homo sapiens, UniProt Q8NER1).
T1 construct: expressed in transfected cells
The experiment in a line: capsaicin-induced Ca2+ influx in the human VR1-transfected CHO cell line (Assay 1). Format: cell-based. The settings on record: 10 nM capsaicin, human VR1-CHOluc9aeq cells; read-out: In vitro activity class. An excerpt: [Measurement of capsaicin-induced Ca^2+ influx in the human VR1-transfected CHO cell line] (Assay 1)
• (1) Establishment of the Human VR1-CHOluc9aeq Cell Line • Human vanilloid receptor (hVR1) cDNA was cloned from libraries of axotomized dorsal root ganglia (WO 00/29577). The cloned hVR1 cDNA was constructed with pcDNA3 vector and transfected into a CHOluc9aeq cell line. The cell line contains aequorin and CRE-luciferase reporter genes as read-out signals. The transfectants were cloned by limiting dilution in selection medium (DMEM/F12 medium (Gibco BRL) supplemented with 10% FCS, 1.4 mM Sodium pyruvate, 20 mM HEPES, 0.15% Sodium bicarbonate, 100 U/ml penicillin, 100 μg/ml streptomycin, 2 mM glutamine, non-essential amino acids and 2 mg/ml G418). Ca^2+ influx was examined in the capsaicin-stimulated clones. A high responder clone was selected and used for further experiments in the project. The human VR1-CHOluc9aeq cells were maintained in the selection medium and passaged every 3-4 days at 1-2.5×10^5 cells/flask ([…]). • (2) Measurement of Ca^2+ Influx Using FDSS-3000 • Human VR1-CHOluc9aeq cells were suspended in a culture medium which is the same as the selection medium except for G418 and seeded at a density of 1,000 cells per well into 384-well plates (black walled clear-base/Nalge Nunc International). Following the culture for 48 hrs the medium was changed to 2 μM Fluo-3 AM (Molecular Probes) and 0.02% Puronic F-127 in assay buffer (Hank's balanced salt solution (HBSS), 17 mM HEPES (pH7.4), 1 mM Probenecid, 0.1% BSA) and the cells were incubated for 60 min at. 25° C. After washing twice with assay buffer the cells were incubated with a test compound or vehicle for 20 min at 25° C. Mobilization of cytoplasmic Ca^2+ was measured by FDSS-3000 (λex=488 nm, λem=540 nm/Hamamatsu Photonics) for 60 sec after the stimulation with 10 nM capsaicin. Integral R was calculated and compared with controls. [Measurement of the Capsaicin-Induced Ca^2+ Influx in Primary Cultured Rat Dorsal Root Ganglia Neurons] (Assay 2) • (1) Preparation of Rat Dorsal Root Ganglia Neurons • New born Wister rats (5-11 days) were sacrificed and dorsal root ganglia (DRG) was removed. DRG was incubated with 0.1% trypsin (Gibco BRL) in PBS(−) (Gibco BRL) for 30 min at 37° C., then a half volume of fetal calf serum (FCS) was added and the cells were spun down. The DRG neuron cells were resuspended in Ham F12/5% FCS/5% horse serum (Gibco BRL) and dispersed by repeated pipetting and passing through 70 μm mesh Falcon). The culture plate was incubated for 3 hours at 37° C. to remove contaminating Schwann cells. Non-adherent cells were recovered and further cultured in laminin-coated 384 well plates (Nunc) at 1×10^4 cells/50 μl/well for 2 days in the presence of 50 ng/ml recombinant rat NGF (Sigma) and 50 μM 5-fluorodeoxyuridine (Sigma). • (2) Ca^2+ Mobilization Assay • DRG neuron cells were washed twice with HBSS supplemented with 17 mM HEPES (pH 7.4) and 0.1% BSA. After incubating with 2 μM fluo-3AM (Molecular Probe), 0.02% PF127 (Gibco BRL) and 1 mM probenecid (Sigma) for 40 min at 37° C., cells were washed 3 times. The cells were incubated with VR1 antagonists or vehicle (dimethylsulphoxide) and then with 1 μM capsaicin in FDSS-6000 (λex=480 nm, λem=520 nm/Hamamatsu Photonics). The fluorescence changes at 480 nm were monitored for 2.5 min. Integral R was calculated and compared with controls. [Organ Bath Assay to Measure the Capsaicin-Induced Bladder Contraction] (Assay 3)
The data corresponds to the compounds as yielded by solid phase synthesis and thus to levels of purity of about 40 to 90%. For practical reasons, the compounds are grouped in four classes of activity as follows: IC50=A(<or=)0.1 μM<B(<or=)0.5 μM<C(<or=)1 μM<D
Turning to `O=C(NCc1ccc(OC(F)(F)F)cc1)Nc1cccc2c1C[C@H](O)CC2` [Example 4-2, N-{(R)-7-hydroxy-5,6,7,8-tetrahydro-naphthalen-1-yl}-N′-(4-trifluoromethoxy-benzyl)-urea], the IC50 was below 100 nM.
Same read-out and setting: under `O=C(NCc1ccc(OC(F)(F)F)cc1)Nc1cccc2c1C[C@@H](O)CC2` [Example 4-3, N-{(S)-7-hydroxy-5,6,7,8-tetrahydro-naphthalen-1-yl}-N′-(4-trifluoromethoxy-benzyl)-urea] stands below 100 nM; under `O=C(NCc1ccc(OC(F)(F)F)cc1)Nc1cccc2c1CC(O)CC2` (stereo not drawn) [Example 4-1, N-(7-hydroxy-5,6,7,8-tetrahydro-naphthalen-1-yl)-N′-(4-trifluoromethoxy-benzyl)-urea], below 100 nM.

The data set is the same for the next values; noted with them: Table 1; 10 nM capsaicin, human VR1-CHOluc9aeq cells; read-out: activity class.
On to `O=C(Nc1ccccc1C(F)(F)F)Nc1cccc2c1CC(O)CC2` (stereo not drawn) [Example 2-7], for which the IC50 lay in the range of 500 to 1000 nM.
As to `O=C(Nc1ccc(Oc2ccccc2)cc1)Nc1cccc2c1CC(O)CC2` (stereo not drawn) [Example 2-20], the IC50 is below 100 nM.
With `CCOC(=O)c1ccc(NC(=O)Nc2cccc3c2CC(O)CC3)cc1` (stereo not drawn) [Example 2-12], the IC50 was below 100 nM.
The same measure, in the same setting: under `O=C(Nc1cccc(C(F)(F)F)c1)Nc1cccc2c1CC(O)CC2` (stereo not drawn) [Example 2-8] stands below 100 nM; under `CCOC(=O)c1cccc(NC(=O)Nc2cccc3c2CC(O)CC3)c1` (stereo not drawn) [Example 2-11], below 100 nM.
In the case of `CC(C)c1ccc(NC(=O)Nc2cccc3c2CC(O)CC3)cc1` (stereo not drawn) [Example 2-19], the IC50 is below 100 nM.
Still for that read-out and setting: in the case of `O=C(Nc1ccc(Cl)c(C(F)(F)F)c1)Nc1ccc(Br)c2c1CC(O)CC2` (stereo not drawn) [Example 2-38] it was below 100 nM; in that of `O=C(NCc1ccccc1F)Nc1cccc2c1CC(O)CC2` (stereo not drawn) [Example 2-27], 100 to 500 nM.
Same read-out and setting: in the case of `COc1cc(NC(=O)Nc2cccc3c2CC(O)CC3)cc(OC)c1` (stereo not drawn) [Example 2-37] it was below 100 nM.

Still in this data set, the particulars now being: Table 2; 10 nM capsaicin, human VR1-CHOluc9aeq cells; read-out: activity class.
On to `O=C(NCc1ccc([N+](=O)[O-])cc1)Nc1cccc2c1CC(O)CC2` (stereo not drawn) [Example 4-25], for which the IC50 was below 100 nM.
The same measure, in the same setting: under `O=C(NCc1ccc(Br)cc1)Nc1cccc2c1CC(O)CC2` (stereo not drawn) [Example 4-7] stands below 100 nM; under `O=C(NCc1cccc(Br)c1)Nc1cccc2c1CC(O)CC2` (stereo not drawn) [Example 4-24], below 100 nM; under `O=C(NCCc1ccc(Cl)cc1)Nc1cccc2c1C[C@@H](O)CC2` [Example 4-54], below 100 nM.
The same measure, in the same setting: under `O=C(NCc1ccc(Cl)c(Cl)c1)Nc1cccc2c1CC(O)CC2` (stereo not drawn) [Example 4-18] stands below 100 nM; under `O=C(NCc1cc(C(F)(F)F)cc(C(F)(F)F)c1)Nc1cccc2c1CC(O)CC2` (stereo not drawn) [Example 4-26], below 100 nM; under `O=C(Nc1ccc(Oc2ccc(Cl)cc2)cc1)Nc1cccc2c1CC(O)CC2` (stereo not drawn) [Example 4-39], below 100 nM.
Still for that read-out and setting: under `NS(=O)(=O)c1ccc(CNC(=O)Nc2cccc3c2CC(O)CC3)cc1` (stereo not drawn) [Example 4-50] stands 500 to 1000 nM; under `O=C(NCc1ccc(OC(F)(F)F)cc1)Nc1cccc2c1CC(O)CC2` (stereo not drawn) [Example 4-17], below 100 nM; under `O=C(NCc1ccc(Cl)cc1Cl)Nc1cccc2c1CC(O)CC2` (stereo not drawn) [Example 4-15], below 100 nM.
As to `CCOC(=O)Cc1ccc(NC(=O)Nc2cccc3c2CC(O)CC3)cc1` (stereo not drawn) [Example 4-33], the IC50 lay within 100 to 500 nM.
In the case of `O=C(NCc1ccc(C(F)(F)F)c(NC2CCCC2)c1)Nc1cccc2c1CC(O)CC2` (stereo not drawn) [Example 4-52], the IC50 was below 100 nM.
Still for that read-out and setting: in the case of `N#CCc1ccc(NC(=O)Nc2cccc3c2CC(O)CC3)cc1` (stereo not drawn) [Example 4-47] it was 100 to 500 nM.
On to `CN(C)c1ccc(CNC(=O)Nc2cccc3c2CC(O)CC3)cc1` (stereo not drawn) [Example 4-34], for which the IC50 was below 100 nM.
Still for that read-out and setting: in the case of `O=C(Nc1ccc(OC(F)(F)F)cc1)Nc1cccc2c1CC(O)CC2` (stereo not drawn) [Example 4-40] it was below 100 nM; in that of `O=C(NCc1ccc(Cl)c(C(F)(F)F)c1)Nc1cccc2c1CC(O)CC2` (stereo not drawn) [Example 4-35], below 100 nM.
In the case of `O=C(NCc1ccccc1Br)Nc1cccc2c1CC(O)CC2` (stereo not drawn) [Example 4-21], the IC50 was below 100 nM.
On the same count and under the same terms, in the case of `O=C(NCc1ccc(SC(F)(F)F)cc1)Nc1cccc2c1CC(O)CC2` (stereo not drawn) [Example 4-45] it was below 100 nM; in that of `O=C(NCc1ccc(C(F)(F)F)c(F)c1)Nc1cccc2c1CC(O)CC2` (stereo not drawn) [Example 4-37], below 100 nM.
With `O=C(NCc1cccc(OC(F)(F)F)c1)Nc1cccc2c1CC(O)CC2` (stereo not drawn) [Example 4-29], the IC50 is below 100 nM.
Take `COc1cccc(CNC(=O)Nc2cccc3c2CC(O)CC3)c1` (stereo not drawn) [Example 4-13]: the IC50 fell in the range of 100 to 500 nM.
On the same count and under the same terms, in the case of `O=C(NCc1ccccc1C(F)(F)F)Nc1cccc2c1CC(O)CC2` (stereo not drawn) [Example 4-19] it was below 100 nM; in that of `O=C(NCc1ccc(C(=O)O)cc1)Nc1cccc2c1CC(O)CC2` (stereo not drawn) [Example 4-30], 500 to 1000 nM; in that of `CC(NC(=O)Nc1cccc2c1CC(O)CC2)c1ccccc1` (stereo not drawn) [Example 4-48], 100 to 500 nM.
Same read-out and setting: in the case of `CC(C)(NC(=O)Nc1cccc2c1CC(O)CC2)c1ccc(Cl)cc1` (stereo not drawn) [Example 4-44] it was 100 to 500 nM; in that of `O=C(NCc1ccccc1)Nc1cccc2c1CC(O)CC2` (stereo not drawn) [Example 4-6], 100 to 500 nM.
On the same count and under the same terms, in the case of `O=C(NCc1ccc(Cl)cc1)Nc1cccc2c1CC(O)CC2` (stereo not drawn) [Example 4-9] it was below 100 nM; in that of `O=C(NCc1c(F)cccc1F)Nc1cccc2c1CC(O)CC2` (stereo not drawn) [Example 4-28], 500 to 1000 nM.

Still in this data set, the particulars now being: Table 3; 10 nM capsaicin, human VR1-CHOluc9aeq cells; read-out: activity class.
Regarding `O=C(Nc1ccccc1Br)Nc1cccc2c1CC(O)CC2` (stereo not drawn) [Example 5-4], the IC50 is 100 to 500 nM.
On the same count and under the same terms, under `CCOc1ccc(NC(=O)Nc2cccc3c2CC(O)CC3)cc1` (stereo not drawn) [Example 5-14] stands below 100 nM; under `COc1ccc(NC(=O)Nc2cccc3c2CC(O)CC3)cc1Cl` (stereo not drawn) [Example 5-19], below 100 nM; under `O=C(Nc1ccccc1F)Nc1cccc2c1CC(O)CC2` (stereo not drawn) [Example 5-2], 500 to 1000 nM.
Still for that read-out and setting: in the case of `Cc1ccc(NC(=O)Nc2cccc3c2CC(O)CC3)cc1` (stereo not drawn) [Example 5-7] it was 100 to 500 nM.
The same measure, in the same setting: under `Cc1cc(NC(=O)Nc2cccc3c2CC(O)CC3)ccc1F` (stereo not drawn) [Example 5-24] stands below 100 nM; under `Cc1ccc(NC(=O)Nc2cccc3c2CC(O)CC3)cc1C` (stereo not drawn) [Example 5-22], below 100 nM; under `COc1cc(NC(=O)Nc2cccc3c2CC(O)CC3)cc(C(F)(F)F)c1` (stereo not drawn) [Example 5-12], below 100 nM.
As to `COc1ccc(NC(=O)Nc2cccc3c2CC(O)CC3)cc1OC` (stereo not drawn) [Example 5-18], the IC50 lay in the range of 100 to 500 nM.
The same measure, in the same setting: under `CCc1cccc(NC(=O)Nc2cccc3c2CC(O)CC3)c1` (stereo not drawn) [Example 5-23] stands below 100 nM.

Tested on in the next data set: not given
Assay: not given
Details: not given
A word on the melting point: it is the temperature of the solid-liquid transition. `O=C(Nc1ccccc1C(F)(F)F)Nc1cccc2c1CC(O)CC2` (stereo not drawn) [Example 2-7] showed a melting point of 217 to 219 °C.
On the same count and under the same terms, under `O=C(Nc1ccc(Oc2ccccc2)cc1)Nc1cccc2c1CC(O)CC2` (stereo not drawn) [Example 2-20] stands 188 to 190 °C; under `CCOC(=O)c1ccc(NC(=O)Nc2cccc3c2CC(O)CC3)cc1` (stereo not drawn) [Example 2-12], 204 to 206 °C; under `O=C(Nc1cccc(C(F)(F)F)c1)Nc1cccc2c1CC(O)CC2` (stereo not drawn) [Example 2-8], 227 to 228 °C.
Compound `CCOC(=O)c1cccc(NC(=O)Nc2cccc3c2CC(O)CC3)c1` (stereo not drawn) [Example 2-11] came in with a melting point of 176 to 178 °C.
The same measure, in the same setting: under `CC(C)c1ccc(NC(=O)Nc2cccc3c2CC(O)CC3)cc1` (stereo not drawn) [Example 2-19] stands 186 to 188 °C; under `O=C(Nc1ccc(Cl)c(C(F)(F)F)c1)Nc1ccc(Br)c2c1CC(O)CC2` (stereo not drawn) [Example 2-38], 234 to 235 °C.
Same read-out and setting: under `O=C(NCc1ccccc1F)Nc1cccc2c1CC(O)CC2` (stereo not drawn) [Example 2-27] stands 184 to 187 °C; under `O=C(Nc1ccccc1Br)Nc1cccc2c1CC(O)CC2` (stereo not drawn) [Example 5-4], 196 to 197 °C; under `O=C(Nc1ccc(Cl)c(C(F)(F)F)c1)Nc1cccc2c1CC(O)CC2` (stereo not drawn) [Example 1-1, N-[4-chloro-3-(trifluoromethyl)phenyl]-N′-(7-hydroxy-5,6,7,8-tetrahydro-1-naphthalenyl)urea], 227 to 228 °C.
